# Experimental data published in patent US8497307B2, “Aryl guanidine F1F0-ATPase inhibitors and related methods” (The Regents of the University of Michigan, priority 2008, dated 2013).
# System: Ramos cells
# Experiment: Cytotoxicity in Ramos cells (cell death)
# Assay type: cell-based
# Method: The compounds listed in Table 7 were tested for cytotoxicity in Ramos cells. The assay was conducted as described in K. M. Johnson et al. Chemistry & Biology 2005, 12, 485-496.
row,SMILES,EC50 [µM]
1,O=C(N=C(Nc1ccc2[nH]c(=O)[nH]c2c1)Nc1ccccc1C(F)(F)F)c1ccc(Br)cc1 [Compound I-1],> 10
2,O=C(N=C(Nc1ccc2[nH]c(=O)[nH]c2c1)Nc1ccccc1C(F)(F)F)c1ccc(Cl)cc1 [Compound I-2],> 10
3,O=C(N=C(Nc1ccc2[nH]c(=O)[nH]c2c1)Nc1ccccc1C(F)(F)F)c1cccc(Cl)c1 [Compound I-3],> 10
4,O=C(N=C(Nc1ccc2[nH]c(=O)[nH]c2c1)Nc1ccccc1C(F)(F)F)c1ccc(F)cc1 [Compound I-4],< 10
5,CC(C)(C)c1ccccc1NC(=NC(=O)c1ccc(Br)cc1)Nc1ccc2[nH]c(=O)[nH]c2c1 [Compound I-5],< 10
6,CC(C)(C)c1ccccc1NC(=NC(=O)c1ccc(Cl)cc1)Nc1ccc2[nH]c(=O)[nH]c2c1 [Compound I-6],< 10
7,CC(C)(C)c1ccccc1NC(=NC(=O)c1cccc(Cl)c1)Nc1ccc2[nH]c(=O)[nH]c2c1 [Compound I-7],< 10
8,CC(C)(C)c1ccccc1NC(=NC(=O)c1ccc(F)cc1)Nc1ccc2[nH]c(=O)[nH]c2c1 [Compound I-8],< 10
9,O=C(N=C(Nc1ccc2ccccc2c1)Nc1ccc2[nH]c(=O)[nH]c2c1)c1ccc(Br)cc1 [Compound I-9],> 10
10,O=C(N=C(Nc1ccc2ccccc2c1)Nc1ccc2[nH]c(=O)[nH]c2c1)c1ccc(Cl)cc1 [Compound I-10],> 10
11,O=C(N=C(Nc1ccc2ccccc2c1)Nc1ccc2[nH]c(=O)[nH]c2c1)c1ccc(F)cc1 [Compound I-12],> 10
12,O=C(N=C(Nc1ccc(-c2ccccc2)cc1)Nc1ccc2[nH]c(=O)[nH]c2c1)c1ccc(Br)cc1 [Compound I-13],> 10
13,O=C(N=C(Nc1ccc(-c2ccccc2)cc1)Nc1ccc2[nH]c(=O)[nH]c2c1)c1ccc(Cl)cc1 [Compound I-14],> 10
14,O=C(N=C(Nc1ccc(-c2ccccc2)cc1)Nc1ccc2[nH]c(=O)[nH]c2c1)c1cccc(Cl)c1 [Compound I-15],> 10
15,O=C(N=C(Nc1ccc(-c2ccccc2)cc1)Nc1ccc2[nH]c(=O)[nH]c2c1)c1ccc(F)cc1 [Compound I-16],> 10
16,O=C(N=C(Nc1ccc2[nH]c(=O)oc2c1)Nc1ccccc1C(F)(F)F)c1ccc(Br)cc1 [Compound I-17],< 10
17,O=C(N=C(Nc1ccc2[nH]c(=O)oc2c1)Nc1ccccc1C(F)(F)F)c1ccc(Cl)cc1 [Compound I-18],< 10
18,O=C(N=C(Nc1ccc2[nH]c(=O)oc2c1)Nc1ccccc1C(F)(F)F)c1cccc(Cl)c1 [Compound I-19],< 10
19,O=C(N=C(Nc1ccc2[nH]c(=O)oc2c1)Nc1ccccc1C(F)(F)F)c1ccc(F)cc1 [Compound I-20],> 10
20,CC(C)(C)c1ccccc1NC(=NC(=O)c1ccc(Br)cc1)Nc1ccc2[nH]c(=O)oc2c1 [Compound I-21],< 10
21,CC(C)(C)c1ccccc1NC(=NC(=O)c1ccc(Cl)cc1)Nc1ccc2[nH]c(=O)oc2c1 [Compound I-22],< 10
22,CC(C)(C)c1ccccc1NC(=NC(=O)c1cccc(Cl)c1)Nc1ccc2[nH]c(=O)oc2c1 [Compound I-23],< 10
23,CC(C)(C)c1ccccc1NC(=NC(=O)c1ccc(F)cc1)Nc1ccc2[nH]c(=O)oc2c1 [Compound I-24],< 10
24,O=C(N=C(Nc1ccc2ccccc2c1)Nc1ccc2[nH]c(=O)oc2c1)c1ccc(Br)cc1 [Compound I-25],< 10

row,SMILES,EC50 [µM]
1,O=C(N=C(Nc1ccc2ccccc2c1)Nc1ccc2[nH]c(=O)oc2c1)c1ccc(Cl)cc1 [Compound I-26],< 10
2,O=C(N=C(Nc1ccc2ccccc2c1)Nc1ccc2[nH]c(=O)oc2c1)c1cccc(Cl)c1 [Compound I-27],< 10
3,O=C(N=C(Nc1ccc2ccccc2c1)Nc1ccc2[nH]c(=O)oc2c1)c1ccc(F)cc1 [Compound I-28],< 10
4,O=C(N=C(Nc1ccc(-c2ccccc2)cc1)Nc1ccc2[nH]c(=O)oc2c1)c1ccc(Br)cc1 [Compound I-29],< 10
5,O=C(N=C(Nc1ccc(-c2ccccc2)cc1)Nc1ccc2[nH]c(=O)oc2c1)c1ccc(Cl)cc1 [Compound I-30],< 10
6,O=C(N=C(Nc1ccc(-c2ccccc2)cc1)Nc1ccc2[nH]c(=O)oc2c1)c1cccc(Cl)c1 [Compound I-31],< 10
7,O=C(N=C(Nc1ccc(-c2ccccc2)cc1)Nc1ccc2[nH]c(=O)oc2c1)c1ccc(F)cc1 [Compound I-32],< 10
8,O=C(N=C(Nc1cccc(C(F)(F)F)c1)Nc1ccc2[nH]c(=O)oc2c1)c1ccc(C(F)(F)F)cc1 [Compound I-85],< 10
9,CC(C)(C)c1ccccc1NC(=NC(=O)c1ccc(C(F)(F)F)cc1)Nc1ccc2[nH]c(=O)oc2c1 [Compound I-86],< 10
10,O=C(N=C(Nc1ccc(Cl)cc1)Nc1ccc2[nH]c(=O)oc2c1)c1ccc(C(F)(F)F)cc1 [Compound I-87],< 10
11,O=C(N=C(Nc1cccc(Cl)c1)Nc1ccc2[nH]c(=O)oc2c1)c1ccc(C(F)(F)F)cc1 [Compound I-88],< 10
12,O=C(N=C(Nc1cccc(C(F)(F)F)c1)Nc1ccc2[nH]c(=O)oc2c1)c1ccc(Cl)cc1 [Compound I-89],< 10
13,O=C(N=C(Nc1ccc(Cl)cc1)Nc1ccc2[nH]c(=O)oc2c1)c1ccc(Cl)cc1 [Compound I-90],> 10
14,O=C(N=C(Nc1cccc(Cl)c1)Nc1ccc2[nH]c(=O)oc2c1)c1ccc(Cl)cc1 [Compound I-91],< 10
15,O=C(N=C(Nc1ccc2[nH]c(=O)oc2c1)Nc1ccccc1C(F)(F)F)c1ccc(C(F)(F)F)cc1 [Compound I-92],< 10
16,O=C(N=C(Nc1ccc2[nH]c(=O)oc2c1)Nc1ccccc1Cl)c1ccc(C(F)(F)F)cc1 [Compound I-93],< 10
17,O=C(N=C(Nc1cc(F)cc(Cl)c1)Nc1ccc2[nH]c(=O)oc2c1)c1ccc(C(F)(F)F)cc1 [Compound I-94],< 10
18,CC(C)(C)c1ccccc1NC(=NC(=O)c1cccc(C(F)(F)F)c1)Nc1ccc2[nH]c(=O)oc2c1 [Compound I-95],< 10
19,CC(C)(C)c1ccccc1NC(=NC(=O)c1cccc(F)c1)Nc1ccc2[nH]c(=O)oc2c1 [Compound I-96],< 10
20,CC(C)(C)c1ccccc1NC(=NC(=O)c1ccc(F)c(F)c1)Nc1ccc2[nH]c(=O)oc2c1 [Compound I-98],< 10
21,O=C(N=C(Nc1ccc2[nH]c(=O)oc2c1)Nc1ccc(Cl)cc1F)c1cccc(C(F)(F)F)c1 [Compound I-99],> 10
22,CC(C)(C)c1ccccc1NC(=NC(=O)c1cccc(C#N)c1)Nc1ccc2[nH]c(=O)oc2c1 [Compound I-100],< 10
23,N#Cc1cccc(C(=O)N=C(Nc2ccc3[nH]c(=O)oc3c2)Nc2ccccc2C(F)(F)F)c1 [Compound I-101],> 10
24,N#Cc1cccc(C(=O)N=C(Nc2cccc(C(F)(F)F)c2)Nc2ccc3[nH]c(=O)oc3c2)c1 [Compound I-102],< 10

row,SMILES,EC50 [µM]
1,CC(C)(C)c1ccccc1NC(=NC(=O)c1ccc(C#N)cc1)Nc1ccc2[nH]c(=O)oc2c1 [Compound I-103],< 10
2,N#Cc1ccc(C(=O)N=C(Nc2ccc3[nH]c(=O)oc3c2)Nc2ccccc2C(F)(F)F)cc1 [Compound I-104],< 10
3,N#Cc1ccc(C(=O)N=C(Nc2cccc(C(F)(F)F)c2)Nc2ccc3[nH]c(=O)oc3c2)cc1 [Compound I-105],> 10
4,CC(C)(C)c1ccccc1NC(=NC(=O)c1ccc(C(F)(F)F)c(F)c1)Nc1ccc2[nH]c(=O)oc2c1 [Compound I-106],< 10
5,CC(C)(C)c1ccccc1NC(=NC(=O)c1ccc(C(F)(F)F)cc1F)Nc1ccc2[nH]c(=O)oc2c1 [Compound I-107],< 10
6,CC(C)(C)c1cccc(NC(=NC(=O)c2ccc(C(F)(F)F)c(F)c2)Nc2ccc3[nH]c(=O)oc3c2)c1 [Compound I-108],< 10
7,O=C(N=C(Nc1cccc(C2CC2)c1)Nc1ccc2[nH]c(=O)oc2c1)c1cccc(C(F)(F)F)c1 [Compound I-109],< 10
8,N#Cc1cccc(C(=O)N=C(Nc2cccc(C3CC3)c2)Nc2ccc3[nH]c(=O)oc3c2)c1 [Compound I-110],< 10
9,CC(C)(C)c1cccc(NC(=NC(=O)c2cccc(C#N)c2)Nc2ccc3[nH]c(=O)oc3c2)c1 [Compound I-111],< 10
10,N#Cc1cccc(C(=O)N=C(Nc2ccc3[nH]c(=O)oc3c2)Nc2ccccc2C2CC2)c1 [Compound I-112],< 10
11,N#Cc1cccc(C(=O)N=C(Nc2ccc3[nH]c(=O)oc3c2)Nc2ccccc2Cl)c1 [Compound I-113],< 10
12,N#Cc1cccc(C(=O)N=C(Nc2cccc(Cl)c2)Nc2ccc3[nH]c(=O)oc3c2)c1 [Compound I-114],< 10
13,N#Cc1cccc(C(=O)N=C(Nc2ccc(Cl)cc2)Nc2ccc3[nH]c(=O)oc3c2)c1 [Compound I-115],< 10
14,N#Cc1cccc(C(=O)N=C(Nc2cc(Cl)cc(Cl)c2)Nc2ccc3[nH]c(=O)oc3c2)c1 [Compound I-116],> 10
15,N#Cc1cccc(C(=O)N=C(Nc2ccc(C(F)(F)F)cc2)Nc2ccc3[nH]c(=O)oc3c2)c1 [Compound I-118],> 10
16,CC(C)(C)c1ccc(NC(=NC(=O)c2cccc(C#N)c2)Nc2ccc3[nH]c(=O)oc3c2)cc1 [Compound I-119],< 10
17,CC(C)(C)c1cccc(NC(=NC(=O)c2ccc(C(F)(F)F)cc2)Nc2ccc3[nH]c(=O)oc3c2)c1 [Compound I-120],< 10
18,O=C(N=C(Nc1ccc2[nH]c(=O)oc2c1)Nc1ccccc1C1CC1)c1ccc(C(F)(F)F)cc1 [Compound I-121],< 10
19,O=C(N=C(Nc1cc(Cl)cc(Cl)c1)Nc1ccc2[nH]c(=O)oc2c1)c1ccc(C(F)(F)F)cc1 [Compound I-125],< 10
20,CC(C)(C)c1ccc(NC(=NC(=O)c2ccc(C(F)(F)F)cc2)Nc2ccc3[nH]c(=O)oc3c2)cc1 [Compound I-128],< 10
21,CC(C)(C)c1ccccc1NC(=NC(=O)c1ccc(C(F)(F)F)cc1)Nc1ccc2oc(=O)[nH]c2c1 [Compound I-129],< 10
22,CC(C)(C)c1ccccc1NC(=NC(=O)c1cccc(C#N)c1)Nc1ccc2oc(=O)[nH]c2c1 [Compound I-130],> 10
23,CC(C)(C)c1ccccc1NC(=NC(=O)c1ccc(C(F)(F)F)c(F)c1)Nc1ccc2oc(=O)[nH]c2c1 [Compound I-131],< 10
